In PubChem BioAssay (NCI):
Where “and” joins values, the source holds several entries; their conditions need not be identical. Identical values can stand only once.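 Dose response: 5 concentrations. Exposure: 48 h. Format: 96-well plates. Endpoint: linear interpolation; highest concentration if not reached. Here, GI50 denotes the concentration required for 50% inhibition of growth. At the TGI there is no net growth.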

Columns and labels:
Experiment in all cases: DTP human tumour cell line panel, 48 h
HCC-2998 colon = tested on: HCC-2998 colon
IGROV1 ovarian = tested on: IGROV1 ovarian
K-562 leukemia = tested on: K-562 leukemia
MALME-3M melanoma = tested on: MALME-3M melanoma
NCI-H23 lung = tested on: NCI-H23 lung
OVCAR-3 ovarian = tested on: OVCAR-3 ovarian
OVCAR-8 ovarian = tested on: OVCAR-8 ovarian
SF-268 CNS = tested on: SF-268 CNS
SNB-19 CNS = tested on: SNB-19 CNS
SW-620 colon = tested on: SW-620 colon

Row | Structure (SMILES) | GI50 (HCC-2998 colon) | TGI (HCC-2998 colon) | GI50 (IGROV1 ovarian) | TGI (IGROV1 ovarian) | GI50 (K-562 leukemia) | TGI (K-562 leukemia) | GI50 (MALME-3M melanoma) | TGI (MALME-3M melanoma) | GI50 (NCI-H23 lung) | TGI (NCI-H23 lung) | GI50 (OVCAR-3 ovarian) | TGI (OVCAR-3 ovarian) | GI50 (OVCAR-8 ovarian) | TGI (OVCAR-8 ovarian) | GI50 (SF-268 CNS) | TGI (SF-268 CNS) | GI50 (SNB-19 CNS) | TGI (SNB-19 CNS) | GI50 (SW-620 colon) | TGI (SW-620 colon)
1 | CCCCCOC(=O)c1c(C)[nH]c(/C=C2\N=C(c3ccc[nH]3)C=C2OC)c1C | 0.0285 µM | 1.39 µM | 0.0494 µM | 1.52 µM | 0.0421 µM | 1.25 µM | 0.32 µM | 1.97 µM | 0.057 µM | 1.47 µM | 0.0423 µM | 0.615 µM | 0.0373 µM | 1.18 µM | 0.0302 µM | 1.87 µM | 0.317 µM | 8.4 µM | 0.0308 µM | 1.28 µM
2 | CN1CCN(c2cc(F)c(NC3=C(Cl)C(=O)c4ncccc4C3=O)c(F)c2)CC1 | 1.84 µM | 3.55 µM | 1.53 µM | 3.37 µM | 0.651 µM | > 100 µM | 1.65 µM | 3.12 µM | 1.4 µM | 3.01 µM | 0.539 µM | 2 µM | 1.86 µM | 4 µM | 1.7 µM | 3.44 µM | 1.94 µM | 3.9 µM | 1.46 µM | 3.17 µM
3 | Cc1cc(NC(=O)NCCCOc2ccc(N3C(N)=NC(N)=NC3(C)C)cc2Cl)ccc1S(=O)(=O)F | 2.06 µM | > 69.2 µM | 0.332 µM | > 68.8 µM | 0.318 µM | > 100 µM | 1.84 µM | 25.4 µM | 0.951 µM | > 66.8 µM | 2.79 µM | > 53.9 µM | 2.52 µM | > 100 µM | 0.569 µM | > 58.9 µM | 0.92 µM | > 54.7 µM | 0.373 µM | > 100 µM
4 | CC(NC(=O)c1ccc(Cl)c(Cl)c1)c1ccc(-c2ccccc2)cc1 (stereo not given) | – | > 100 µM | – | > 100 µM | – | > 100 µM | – | 49.1 µM | – | > 100 µM | – | 66.2 µM | – | 82.5 µM | – | > 100 µM | – | 46.7 µM | – | > 100 µM
5 | CC[C@@H]1C(=O)N(C)c2cnc(Nc3ccc(C(=O)NC4CCC(N5CCN(CC6CC6)CC5)CC4)cc3OC)nc2N1C(C)C (stereo not given in full) | 0.0289 µM and 0.0374 µM | > 4.12 µM and 2.83 µM | 0.0418 µM and 0.0524 µM | > 10 µM and 7.22 µM | 0.00946 µM and 0.0288 µM | > 10 µM and 1.83 µM | 0.607 µM and 1.39 µM | > 4.91 µM and 3.08 µM | 0.0158 µM and 0.028 µM | > 10 µM and 2.99 µM | 0.013 µM and < 0.0161 µM | – | 0.0242 µM and 0.033 µM | > 10 µM and 1.65 µM | 0.0586 µM and 0.0485 µM | > 10 µM and 7.8 µM | 0.0356 µM and 0.0566 µM | > 10 µM and 18 µM | 0.00561 µM and 0.0102 µM | > 10 µM and 11.1 µM
6 | CSC(=Nc1ccc([N+](=O)[O-])cc1C#N)NC(=O)c1ccccc1 | – | > 100 µM | – | > 100 µM | – | > 100 µM | – | > 100 µM | – | > 100 µM | – | > 100 µM | – | > 100 µM | – | > 100 µM | – | > 100 µM | – | > 100 µM
7 | O=C(O)C1CCCN1 (stereo not given) | – | > 100 µM | – | > 100 µM | – | > 100 µM | – | > 100 µM | – | > 100 µM | – | > 100 µM | – | > 100 µM | – | > 100 µM | – | > 100 µM | – | > 100 µM
8 | CCOc1ccc2nc3cc(N)ccc3c(N)c2c1 | 3.24 µM and 1.43 µM | 13.9 µM and 4.72 µM | 11.5 µM and 15.3 µM | 37.3 µM and 45.4 µM | 6.03 µM and 6.26 µM | 20.2 µM and 25.4 µM | 1.22 µM and 1.54 µM | 3.23 µM and 3.95 µM | 2.2 µM and 2.31 µM | 13.2 µM and 11.3 µM | 2 µM and 1.91 µM | 7.25 µM and 10.5 µM | 2.68 µM and 2.55 µM | 15.8 µM and 13.1 µM | 0.385 µM and 0.324 µM | 1.79 µM and 1.68 µM | 0.339 µM and 0.574 µM | 2.04 µM and 5 µM | 3.1 µM and 3.08 µM | 16.2 µM and 14.4 µM
9 | CC(C)N1CCOC(c2ccc(O)c(O)c2)C1 (stereo not given) | – | > 100 µM | – | > 100 µM | – | > 100 µM | – | > 100 µM | – | > 100 µM | – | > 100 µM | – | > 100 µM | – | > 100 µM | – | > 100 µM | – | > 100 µM
10 | O=C(O)c1c2c(c(O)c3c1CN(C1CCCCC1)CO3)OCN(C1CCCCC1)C2 | – | 84.1 µM | – | > 100 µM | – | > 100 µM | – | > 100 µM | – | > 100 µM | – | > 100 µM | – | > 100 µM | – | > 100 µM | – | > 100 µM | – | 52.5 µM
11 | Cc1cccc(-c2nc(=S)[nH][nH]2)c1 | – | > 100 µM | – | > 100 µM | – | > 100 µM | – | > 100 µM | – | > 100 µM | – | > 100 µM | – | > 100 µM | – | > 100 µM | – | > 100 µM | – | > 100 µM
12 | CC(=O)Nc1ccc(CC[C@H]2CCC/C=C/[C@@H]3C[C@H](O)C[C@H]3[C@H](O)/C=C/C(=O)O2)cc1 | 0.0781 µM | – | 0.0887 µM | 0.237 µM | 0.392 µM | > 100 µM | 0.257 µM | 0.573 µM | 0.188 µM | 0.759 µM | 0.217 µM | 0.533 µM | 0.0821 µM | > 100 µM | 0.0594 µM | > 100 µM | 0.231 µM | > 100 µM | 0.185 µM | 0.597 µM
13 | COc1ccc2c(c1[N+](=O)[O-])CC[C@@H]1[C@@H]2CC[C@]2(C)C(=O)CC[C@@H]12 | > 25 µM | > 1000 µM | 741 µM | > 1000 µM | > 1000 µM | – | > 748 µM | – | 679 µM | > 1000 µM | 631 µM | > 1000 µM | 462 µM | > 1000 µM | 342 µM | > 1000 µM | 457 µM | – | > 1000 µM | > 1000 µM
14 | CCCCCCCCCCCC1=NC(C)(C)CN1C(C)C | 1.71 µM | 3.27 µM | 1.64 µM | 4.53 µM | 1.94 µM | 5.82 µM | 1.92 µM | 4.32 µM | 2.98 µM | 11.3 µM | 1.94 µM | 6.14 µM | 4.35 µM | 16.3 µM | 5.51 µM | 18.2 µM | 11.3 µM | 23.4 µM | 1.85 µM | 3.87 µM
15 | Clc1ccc2c(NCCCCNc3nc(N4CCOCC4)nc4ccccc34)ccnc2c1 | 3.81 µM | 14 µM | 2.99 µM | 11.5 µM | 1.43 µM | 11.2 µM | 2.05 µM | 3.89 µM | 5.68 µM | 23.2 µM | 1.93 µM | 3.7 µM | 3.53 µM | 10.6 µM | 3.29 µM | 13.7 µM | 3.37 µM | 12.6 µM | 2.65 µM | 12.5 µM
